# Experimental data from ChEMBL document CHEMBL6109180, “De Novo-Designed APC/C Inhibitors Provide a Rationale for Targeting RING-Type E3 Ubiquitin Ligases” (J Med Chem, 2025).
# Calls of active or inactive are those of the source. No cut-off for these calls is given here. Numbered stars: 1 amine (or outer) side, 2 acyl side, 3 side chain; on linkers, the order of the positions; unused ones are H or OH. Bridge positions count the residues as written; N and C are the ends. Square brackets hold non-standard residues; d marks the D form. Peptide text beside a SMILES is read from it. I, II: the chains in the order shown. X1 = O=C(O)CC[C@@H](C(=O)[*:2])N(CCOCCOCCOCCOCCOCCO[*:3])[*:1]; R8 = C=CCCCCCC[C@@](C)(N)C(=O)O; S5 = C=CCCC[C@](C)(N)C(=O)O; Pra = C#CC[C@H](N)C(=O)O; AEA = NCCOCC(=O)O
# How the values were obtained:
# [1] = target: Baculoviral IAP repeat-containing protein 2 (Homo sapiens) (UniProt Q13490); assay: Binding affinity to c-IAP1 in asynchronously growing human HeLa cells incubated for 30 mins by pull down assay; assay type: cell-based
# [2] = target: E3 ubiquitin-protein ligase RBX1 (Homo sapiens) (UniProt P62877); assay: Binding affinity to RBX1 in asynchronously growing human HeLa cells incubated for 30 mins by pull down assay; assay type: cell-based
# [3] = target: E3 ubiquitin-protein ligase Mdm2 (Homo sapiens) (UniProt Q00987); assay: Binding affinity to MDM2 in asynchronously growing human HeLa cells incubated for 30 mins by pull down assay; assay type: cell-based
# [4] = target: Anaphase-promoting complex subunit 11 (Homo sapiens) (UniProt Q9NYG5); assay: Binding affinity to APC11 in asynchronously growing human HeLa cells incubated for 30 mins by pull down assay; assay type: cell-based
# [5] = target: T1, Polycomb complex protein BMI-1 (Homo sapiens) (UniProt P35226); assay: Binding affinity to BMI1 in asynchronously growing human HeLa cells incubated for 30 mins by pull down assay; assay type: cell-based
# T1 sequence (whole entry): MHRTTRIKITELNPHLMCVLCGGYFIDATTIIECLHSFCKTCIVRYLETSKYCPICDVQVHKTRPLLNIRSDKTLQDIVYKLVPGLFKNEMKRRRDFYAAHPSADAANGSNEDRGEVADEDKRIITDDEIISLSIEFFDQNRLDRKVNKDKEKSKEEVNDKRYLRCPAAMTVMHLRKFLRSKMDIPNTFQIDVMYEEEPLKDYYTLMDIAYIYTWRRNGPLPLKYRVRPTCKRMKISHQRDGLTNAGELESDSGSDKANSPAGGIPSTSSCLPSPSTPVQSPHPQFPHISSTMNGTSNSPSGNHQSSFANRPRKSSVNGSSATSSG
# [6] = target: E3 ubiquitin-protein ligase CBL (Homo sapiens) (UniProt P22681); assay: Binding affinity to c-CBL in asynchronously growing human HeLa cells incubated for 30 mins by pull down assay; assay type: cell-based
# [7] = target: Breast cancer type 1 susceptibility protein (Homo sapiens) (UniProt P38398); assay: Binding affinity to BRCA1 in asynchronously growing human HeLa cells incubated for 30 mins by pull down assay; assay type: cell-based
# [8] = Drug localization in human HeLa cells assessed as punctate pattern formation at 50 uM incubated for 10 hrs by AF488 dye based analysis; assay type: ADME, cell-based
# [9] = test system: TERT-RPE1; assay: Effect on time length of mitosis in human RPE-1 cells at 50 uM measured for 10 to 24 hrs by bright field microscopy; assay type: functional, cell-based; conditions: time 10-24 hrs
# [10] = test system: HeLa; assay: Induction of mitotic arrest in human HeLa cells assessed as time length at 50 uM measured up to 213 mins by time-lapse imaging analysis; assay type: functional; conditions: 3.55 h
# [11] = test system: HeLa; assay: Induction of mitotic arrest in human HeLa cells assessed as cells in prolongation at 50 uM measured up to 213 mins by time-lapse imaging analysis relative to control; assay type: functional; conditions: 3.55 h
# [12] = test system: HeLa; assay: Induction of mitotic arrest in human HeLa cells assessed as prolongation in metaphase at 50 uM measured up to 213 mins by time-lapse imaging analysis; assay type: functional, cell-based
# [13] = test system: SW480; assay: Effect on time length of mitosis in human SW480 cells at 50 uM incubated for 10 to 24 hrs by live cell microscopy; assay type: functional, cell-based; conditions: time 10-24 hrs
# [14] = test system: HT-1080; assay: Induction of mitotic arrest in human HT-1080 cells assessed as cells in prolongation at 50 uM measured up to 213 mins by time-lapse imaging analysis relative to control; assay type: functional; conditions: 3.55 h
# [15] = test system: MDA-MB-231; assay: Effect on time length of mitosis in human MDA-MB-231 cells at 50 uM incubated for 10 to 24 hrs by live cell microscopy; assay type: functional, cell-based; conditions: time 10-24 hrs
# [16] = test system: RKO; assay: Induction of mitotic arrest in human RKO cells assessed as cells in prolongation at 50 uM measured up to 213 mins by time-lapse imaging analysis relative to control; assay type: functional; conditions: 3.55 h
# [17] = test system: A549; assay: Induction of mitotic arrest in human A549 cells assessed as cells in prolongation at 50 uM measured up to 213 mins by time-lapse imaging analysis relative to control; assay type: functional; conditions: 3.55 h
# [18] = test system: HeLa; assay: Binding affinity to APC2 in asynchronous human HeLa cells incubated for 2 hrs by pull down assay; assay type: cell-based
# [19] = test system: HeLa; assay: Induction of mitosis prolongation in human HeLa cells assessed as time taken at 50 uM measured for 10 to 48 hrs by live cell imaging analysis; assay type: functional; conditions: time 10-48 hrs
# [20] = Drug localization in cytoplasm of human HeLa cells at 50 uM incubated for 10 hrs by AF488 dye based analysis; assay type: ADME, subcellular
# [21] = Drug localization in nucleus of human HeLa cells at 50 uM incubated for 4 to 10 hrs by AF488 dye based analysis; assay type: ADME, subcellular; conditions: time 4-10 hrs
# [22] = Drug localization in nucleoplasm of human HeLa cells at 50 uM incubated for 10 hrs by AF488 dye based analysis; assay type: ADME, subcellular
# [23] = target: Anaphase-promoting complex subunit 11 (Homo sapiens) (UniProt Q9NYG5); assay: Binding affinity to APC11 in asynchronous human HeLa cells incubated for 2 hrs by pull down assay; assay type: cell-based
# [24] = test system: HeLa; assay: Inhibition of recombinant APC/C/cdc20 (unknown origin) in metaphase-synchronized human HeLa cells co-expressing GST-tagged UBA1/UBE2C/methylated ubiquitin using RD680-labeled securin as substrate at 25 uM measured after 45 mins in presence of ATP by immuno-precipitation method relative to control
# [25] = test system: HeLa; assay: Inhibition of recombinant APC/C/cdc20 (unknown origin) in metaphase-synchronized human HeLa cells co-expressing GST-tagged UBA1/UBE2C/methylated ubiquitin using RD680-labeled securin as substrate at 100 uM measured after 45 mins in presence of ATP by immuno-precipitation method; assay type: cell-based
# [26] = Inhibition of recombinant APC/C/cdc20 (unknown origin) in metaphase-synchronized human HeLa cells co-expressing GST-tagged UBA1/UBE2C/methylated ubiquitin using RD680-labeled securin as substrate measured after 45 mins in presence of ATP by immuno-precipitation method
# [27] = Non-competitve inhibition of recombinant APC/C/cdc20 (unknown origin) in metaphase-synchronized human HeLa cells co-expressing GST-tagged UBA1/UBE2C/methylated ubiquitin using RD680-labeled securin as substrate measured after 45 mins in presence of ATP by immuno-precipitation method; assay type: cell-based
# [28] = test system: HeLa; assay: Inhibition of recombinant APC/C/cdc20 (unknown origin) in metaphase-synchronized human HeLa cells co-expressing GST-tagged UBA1/UBE2S/methylated ubiquitin using cyclin B1 as substrate assessed as decrease in UBE2S-driven chain elongation at 100 uM measured after 45 mins in presence of ATP by immuno-precipitation method; assay type: cell-based
# [29] = target: T2, Ubiquitin-conjugating enzyme E2 C (Homo sapiens) (UniProt O00762); assay: Inhibition of UBE2C (unknown origin) auto-ubiquitination at 100 uM measured after 45 mins in presence of UBA1/His6-ubiquitin/ATP by SDS-PAGE analysis
# T2 sequence (whole entry): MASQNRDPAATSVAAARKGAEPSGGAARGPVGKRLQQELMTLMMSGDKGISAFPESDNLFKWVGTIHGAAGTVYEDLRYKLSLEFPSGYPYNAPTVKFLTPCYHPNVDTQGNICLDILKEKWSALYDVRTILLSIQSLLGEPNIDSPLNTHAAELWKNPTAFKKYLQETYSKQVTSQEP
# [30] = test system: HeLa; assay: Inhibition of recombinant APC/C/cdc20 (unknown origin) in metaphase-synchronized human HeLa cells co-expressing GST-tagged UBA1/UBE2S/methylated ubiquitin using cyclin B1 as substrate at 100 uM measured after 45 mins in presence of ATP by immuno-precipitation method; assay type: cell-based
# [31] = species: Homo sapiens; assay: Potency index, ratio of Apcin IC50 to test compound IC50 for inhibition of APC/C (unknown origin)
# [32] = test system: HeLa; assay: Inhibition of recombinant APC/C/cdc20 (unknown origin) in metaphase-synchronized human HeLa cells co-expressing GST-tagged UBA1/UBE2C/methylated ubiquitin using cyclin B1 as substrate at 100 uM measured after 45 mins in presence of ATP by immuno-precipitation method
# [33] = test system: HeLa; assay: Inhibition of recombinant APC/C/cdc20 (unknown origin) in metaphase-synchronized human HeLa cells co-expressing GST-tagged UBA1/UBE2D1/methylated ubiquitin using cyclin B1 as substrate at 100 uM measured after 45 mins in presence of ATP by immuno-precipitation method
# Anaphase-promoting complex subunit 11 (Homo sapiens), sequence (Q9NYG5 whole entry, one chain of several): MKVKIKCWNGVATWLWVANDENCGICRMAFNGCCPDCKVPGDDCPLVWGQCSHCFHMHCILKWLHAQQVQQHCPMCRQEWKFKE
# E3 ubiquitin-protein ligase Mdm2 (Homo sapiens), sequence (Q00987 whole entry, looked up): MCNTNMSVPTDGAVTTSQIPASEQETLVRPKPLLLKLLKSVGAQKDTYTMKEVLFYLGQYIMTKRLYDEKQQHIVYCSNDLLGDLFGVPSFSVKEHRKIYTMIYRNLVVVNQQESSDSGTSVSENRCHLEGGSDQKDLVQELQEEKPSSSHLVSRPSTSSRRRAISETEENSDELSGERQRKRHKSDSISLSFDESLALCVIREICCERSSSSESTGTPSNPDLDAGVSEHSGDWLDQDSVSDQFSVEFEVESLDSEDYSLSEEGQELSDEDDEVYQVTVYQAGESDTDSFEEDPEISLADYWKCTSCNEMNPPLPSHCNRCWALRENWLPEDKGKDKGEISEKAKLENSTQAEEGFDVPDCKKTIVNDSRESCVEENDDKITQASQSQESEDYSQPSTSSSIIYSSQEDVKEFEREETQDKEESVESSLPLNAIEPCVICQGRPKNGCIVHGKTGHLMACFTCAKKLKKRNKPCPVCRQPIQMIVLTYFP
# Baculoviral IAP repeat-containing protein 2 (Homo sapiens), sequence (Q13490 whole entry): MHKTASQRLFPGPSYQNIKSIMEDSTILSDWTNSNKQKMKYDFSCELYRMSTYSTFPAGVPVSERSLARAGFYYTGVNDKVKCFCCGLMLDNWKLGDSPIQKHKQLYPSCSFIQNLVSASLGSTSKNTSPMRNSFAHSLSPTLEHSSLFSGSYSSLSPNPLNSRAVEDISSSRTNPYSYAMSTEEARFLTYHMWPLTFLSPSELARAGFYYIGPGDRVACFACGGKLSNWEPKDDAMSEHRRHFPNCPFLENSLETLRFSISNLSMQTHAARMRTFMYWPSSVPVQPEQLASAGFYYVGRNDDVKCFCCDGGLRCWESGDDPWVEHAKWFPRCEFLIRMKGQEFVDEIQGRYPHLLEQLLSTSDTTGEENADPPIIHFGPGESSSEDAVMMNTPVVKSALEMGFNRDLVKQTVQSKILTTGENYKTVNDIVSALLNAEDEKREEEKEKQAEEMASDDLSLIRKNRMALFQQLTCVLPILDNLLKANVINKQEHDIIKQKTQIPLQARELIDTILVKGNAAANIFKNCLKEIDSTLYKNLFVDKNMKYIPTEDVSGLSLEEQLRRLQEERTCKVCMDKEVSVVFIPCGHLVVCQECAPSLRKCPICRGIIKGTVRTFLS
# Breast cancer type 1 susceptibility protein (Homo sapiens), sequence (P38398 whole entry, looked up): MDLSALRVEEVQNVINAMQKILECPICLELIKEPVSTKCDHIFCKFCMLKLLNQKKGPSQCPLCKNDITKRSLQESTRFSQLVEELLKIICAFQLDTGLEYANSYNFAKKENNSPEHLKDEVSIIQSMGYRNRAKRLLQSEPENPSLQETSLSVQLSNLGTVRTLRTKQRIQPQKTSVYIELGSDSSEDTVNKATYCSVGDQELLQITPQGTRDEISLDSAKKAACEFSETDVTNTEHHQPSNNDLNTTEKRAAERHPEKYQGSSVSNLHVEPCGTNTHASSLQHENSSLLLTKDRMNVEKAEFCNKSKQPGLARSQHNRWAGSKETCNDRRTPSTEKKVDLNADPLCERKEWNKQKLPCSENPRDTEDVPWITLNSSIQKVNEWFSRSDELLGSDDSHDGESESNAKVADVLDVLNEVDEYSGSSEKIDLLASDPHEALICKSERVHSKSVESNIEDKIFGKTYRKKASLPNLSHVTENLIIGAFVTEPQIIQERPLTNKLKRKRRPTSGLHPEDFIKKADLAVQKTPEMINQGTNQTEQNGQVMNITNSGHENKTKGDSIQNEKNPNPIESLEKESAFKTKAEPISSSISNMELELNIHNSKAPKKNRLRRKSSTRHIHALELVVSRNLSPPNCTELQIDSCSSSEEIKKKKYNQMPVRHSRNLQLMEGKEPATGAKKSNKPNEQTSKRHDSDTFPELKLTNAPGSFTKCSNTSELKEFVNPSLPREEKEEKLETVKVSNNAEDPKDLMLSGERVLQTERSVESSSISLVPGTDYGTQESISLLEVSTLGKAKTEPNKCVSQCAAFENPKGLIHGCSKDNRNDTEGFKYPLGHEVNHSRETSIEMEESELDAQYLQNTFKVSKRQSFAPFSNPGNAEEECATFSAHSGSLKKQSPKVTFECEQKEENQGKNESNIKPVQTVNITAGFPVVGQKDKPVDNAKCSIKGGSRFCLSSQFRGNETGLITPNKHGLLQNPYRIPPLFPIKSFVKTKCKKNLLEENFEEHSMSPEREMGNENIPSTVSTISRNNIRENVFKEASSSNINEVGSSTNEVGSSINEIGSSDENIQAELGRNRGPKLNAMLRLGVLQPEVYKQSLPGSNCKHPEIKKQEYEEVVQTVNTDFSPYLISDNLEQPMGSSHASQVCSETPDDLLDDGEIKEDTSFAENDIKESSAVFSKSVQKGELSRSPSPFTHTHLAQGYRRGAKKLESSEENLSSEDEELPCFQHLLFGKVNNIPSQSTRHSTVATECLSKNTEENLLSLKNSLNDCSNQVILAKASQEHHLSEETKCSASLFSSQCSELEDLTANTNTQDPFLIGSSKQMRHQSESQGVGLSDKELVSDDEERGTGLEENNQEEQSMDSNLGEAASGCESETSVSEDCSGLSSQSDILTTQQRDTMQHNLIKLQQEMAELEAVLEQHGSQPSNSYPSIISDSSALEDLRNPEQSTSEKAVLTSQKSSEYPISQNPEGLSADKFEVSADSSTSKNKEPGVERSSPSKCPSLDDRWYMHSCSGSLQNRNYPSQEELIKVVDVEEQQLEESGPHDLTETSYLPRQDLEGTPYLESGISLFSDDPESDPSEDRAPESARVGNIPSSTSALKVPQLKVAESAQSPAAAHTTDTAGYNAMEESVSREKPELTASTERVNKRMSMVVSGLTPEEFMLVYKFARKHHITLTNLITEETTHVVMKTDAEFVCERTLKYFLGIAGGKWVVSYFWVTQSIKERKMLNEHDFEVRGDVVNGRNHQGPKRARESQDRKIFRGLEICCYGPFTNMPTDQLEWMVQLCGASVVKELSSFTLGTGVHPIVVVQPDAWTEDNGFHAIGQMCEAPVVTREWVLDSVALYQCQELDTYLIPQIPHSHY
# E3 ubiquitin-protein ligase RBX1 (Homo sapiens), sequence (P62877 whole entry, looked up): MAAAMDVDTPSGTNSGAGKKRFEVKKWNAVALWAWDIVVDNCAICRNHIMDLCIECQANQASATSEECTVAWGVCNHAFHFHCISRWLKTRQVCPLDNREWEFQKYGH
smiles,measurement,setting,value
C#CC[C@H](NC(C)=O)C(=O)N[C@@H](CCCNC(=N)N)C(=O)N[C@H]1CSSC[C@@H](C(=O)N[C@@H](CCCNC(=N)N)C(N)=O)NC(=O)[C@H](Cc2c[nH]c3ccccc23)NC(=O)[C@H](Cc2ccccc2)NC(=O)[C@H]([C@@H](C)O)NC(=O)[C@H](CCCNC(=N)N)NC(=O)[C@@H]2CCCN2C(=O)CNC(=O)[C@H](Cc2c[nH]c3ccccc23)NC(=O)[C@H](Cc2cnc[nH]2)NC1=O (Ac-[Pra]RCHWGPRTFWCR-NH2; disulfide 3-12),Activity,[1],inactive
same,Activity,[2],inactive
same,Activity,[3],Active
same,Activity,[4],Active
same,Activity,[5],inactive
same,Activity,[6],Active
same,Activity,[7],inactive
C#CC[C@H](NC(=O)[C@@H]1CCCN1C(=O)[C@H](Cc1c[nH]c2ccccc12)NC(=O)[C@H](CCCNC(=N)N)NC(C)=O)C(=O)N[C@@]1(C)CCC/C=C/CCC[C@@](C)(C(=O)N[C@@H](CCC(N)=O)C(=O)N[C@H](C(=O)N[C@@H](CCCNC(=N)N)C(=O)N[C@@H](CCCNC(=N)N)C(=O)N[C@@H](Cc2c[nH]c3ccccc23)C(N)=O)C(C)C)NC(=O)[C@H](CC(=O)O)NC(=O)[C@H](Cc2c[nH]c3ccccc23)NC(=O)[C@H](CCCCN)NC1=O (Ac-RWP[Pra][S5]KWD[S5]QVRRW-NH2; staple (E) 5-9),Drug uptake,[8],Active
same,Activity,[3],inactive
same,Activity,[4],Active
same,Activity,[9],No effect
same,Activity,[6],inactive
CC[C@H](C)[C@@H]1NC(=O)[C@H](CCC(=O)O)NC(=O)[C@H](CCCCN)NC(=O)[C@H]([C@@H](C)CC)NC(=O)[C@](C)(NC(=O)[C@H](Cc2c[nH]c3ccccc23)NC(=O)[C@H](Cc2c[nH]c3ccccc23)NC(=O)[C@H](CCC(=O)O)NC(=O)COCCNC(=O)CNC(=O)[C@H](Cc2ccccc2)NC(=O)[C@H](Cc2c[nH]c3ccccc23)NC(=O)[C@H](Cc2ccccc2)NC(=O)CNC(C)=O)CCCCCC/C=C\CCC[C@@](C)(C(=O)N[C@@H](CCCNC(=N)N)C(=O)N[C@@H](CCCNC(=N)N)C(=O)N[C@@H](C)C(N)=O)NC(=O)[C@H](CCCNC(=N)N)NC(=O)[C@H](CCC(N)=O)NC1=O (Ac-GFWFG[AEA]EWW[R8]IKEIQR[S5]RRA-NH2; staple (Z) 10-17),Time,[10],<=2 hr
same,Activity,[11],75%
same,Activity,[12],Active
same,Activity,[13],No effect
same,Activity,[14],75%
same,Activity,[15],No effect
same,Activity,[16],75%
same,Activity,[17],75%
C#CC[C@H](NC(=O)[C@H](Cc1c[nH]c2ccccc12)NC(=O)[C@H](CCC(=O)O)NCCOCCOCCOCCOCCOCCOC(=O)CNC(=O)[C@H](Cc1ccccc1)NC(=O)[C@H](Cc1c[nH]c2ccccc12)NC(=O)[C@H](Cc1ccccc1)NC(=O)CNC(C)=O)C(=O)N[C@]1(C)CCCCCC/C=C\CCC[C@@](C)(C(=O)N[C@@H](CCCNC(=N)N)C(=O)N[C@@H](CCCNC(=N)N)C(=O)N[C@@H](C)C(N)=O)NC(=O)[C@H](CCCNC(=N)N)NC(=O)[C@H](CCC(N)=O)NC(=O)[C@H]([C@@H](C)CC)NC(=O)[C@H](CCC(=O)O)NC(=O)[C@H](CCCCN)NC(=O)[C@H]([C@@H](C)CC)NC1=O (I: H-[X1]W[Pra][R8]IKEIQR[S5]RRA-NH2 / II: Ac-GFWFG; ester I:1-II:C; staple (Z) I:4-I:11),Activity,[18],inactive
same,Time,[19],~74 min
same,Drug uptake,[20],Active
same,Drug uptake,[21],Active
same,Drug uptake,[22],Active
same,Activity,[23],inactive
CC[C@H](C)[C@@H]1NC(=O)[C@H](CCC(=O)O)NC(=O)[C@H](CCCCN)NC(=O)[C@H]([C@@H](C)CC)NC(=O)[C@](C)(NC(=O)[C@H](Cc2c[nH]c3ccccc23)NC(=O)[C@H](Cc2c[nH]c3ccccc23)NC(=O)[C@H](CCC(=O)O)NC(C)=O)CCCCCC/C=C\CCC[C@@](C)(C(=O)N[C@@H](CCCNC(=N)N)C(=O)N[C@@H](CCCNC(=N)N)C(=O)N[C@@H](C)C(N)=O)NC(=O)[C@H](CCCNC(=N)N)NC(=O)[C@H](CCC(N)=O)NC1=O (Ac-EWW[R8]IKEIQR[S5]RRA-NH2; staple (Z) 4-11),inhibition,[24],> 80%
same,inhibition,[25],Active; Compound Exerted Better Inhibitory Effect Than Tame
same,IC50,[26],1.96 µM
same,Ki,[27],5.03 µM
same,inhibition,[28],100%
same,inhibition,[29],inactive
same,inhibition,[30],Active
same,Ratio IC50,[31],4.5
same,Activity,[9],No effect
same,inhibition,[32],Active
same,inhibition,[33],Active
